This note sets out measurements from US9453014B2, “Cyclic amide derivatives as inhibitors of 11-β-hydroxysteroid dehydrogenase and uses thereof” (CONNEXIOS LIFE SCIENCES PVT. LTD., priority 2011, dated 2016).

For this assay, the target named is T1, human full length HSD11 β 1 (Homo sapiens, UniProt P28845).
T1 construct: transient expression of human full length HSD11 β 1 expression vector; host or cells: CHO cells (transient transfection)
T1 sequence (P28845 whole entry): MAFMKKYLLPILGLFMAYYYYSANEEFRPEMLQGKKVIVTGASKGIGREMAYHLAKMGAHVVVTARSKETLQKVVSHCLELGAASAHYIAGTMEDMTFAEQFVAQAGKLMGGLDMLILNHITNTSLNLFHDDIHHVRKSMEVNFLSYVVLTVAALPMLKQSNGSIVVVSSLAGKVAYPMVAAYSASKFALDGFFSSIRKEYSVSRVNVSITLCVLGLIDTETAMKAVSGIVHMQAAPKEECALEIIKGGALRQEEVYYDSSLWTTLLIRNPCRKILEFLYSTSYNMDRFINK
Nature of the assay: In Vitro HSD11β1 Inhibition Assay. In kind it is cell-based. Conditions: CHO cells transiently expressing human HSD11β1; 200 nM cortisone+500 uM NADPH overnight; cortisone to cortisol by LC/MS-MS; read-out: 11βHSD1 (IC50). The gist of the method:
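CHO cells transiently transfected with human full-length HSD11β1 were re-seeded after 24 h and, 24 h later, incubated overnight with 200 nM cortisone plus 500 uM NADPH and inhibitor. Cortisone-to-cortisol conversion was measured by LC/MS-MS. IC50 from an 8-point log concentration–inhibition curve.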
What is called IC50 is the concentration that inhibits the measured activity by half. As to `CC(CC(=O)N1CCCC2C(C(=O)O)CCCC21)c1c[nH]c2cccc(-c3ccc(F)o3)c12` (single isomer, unassigned) [Compound 248, 1-{3-[4-(5-fluorofuran-2-yl)-1H-indol-3-yl]butanoyl}decahydroquinoline-5-carboxylic acid], the IC50 is under 100 nM.
With `O=C(COc1c[nH]c2ccccc12)N1CCCC2CCCCC21` (stereo not shown) [Example 99, 2-(1H-indol-3-yloxy)-1-(octahydroquinolin-1(2H)-yl)ethanone], the IC50 is over 250 nM.
The value for `CC(CC(=O)N1CCCC2CCCCC21)c1cn(C)c2ccccc12` (stereo not shown) [Example 94, 3-(1-methyl-1H-indol-3-yl)-1-(octahydroquinolin-1(2H)-yl)butan-1-one] was 150 to 200 nM; that for `Cc1cccc2[nH]cc(CCC(=O)N3CCCC4CCCCC43)c12` (stereo not shown) [Compound 20, 3-(4-methyl-1H-indol-3-yl)-1-(octahydroquinolin-1(2H)-yl)propan-1-one] was under 100 nM; that for `Cn1cc(CCC(=O)N2CCCC3CCCCC32)c2c(F)cccc21` (stereo not shown) [Compound 47, 3-(4-fluoro-1-methyl-1H-Indol-3-yl)-1-(octahydroquinolin-1(2H)-yl)propan-1-one] was under 100 nM.
Take `O=C(O)C1CCN(C(=O)CC(c2ccc(F)cc2)c2c[nH]c3cccc(F)c23)C2CCCCC12` (stereo not shown) [Example 157, 1-[3-(4-fluoro-1H-indol-3-yl)-3-(4-fluorophenyl)propanoyl]decahydroquinoline-4-carboxylic acid]: the IC50 was under 100 nM.
In the case of `Cc1cccc2c1c(CCC(=O)N1CCCC3CCCCC31)cn2C1CC1` (stereo not shown) [Compound 28, 3-(1-cyclopropyl-4-methyl-1H-indol-3-yl)-1-(octahydroquinolin-1(2H) -yl)propan-1-one], the IC50 was 100 to 150 nM.
The value for `O=C(O)C1CC2CCCCC2N(C(=O)CC(c2ccccc2)c2c[nH]c3cc(F)ccc23)C1` (stereo not shown) [Example 175, 1-[3-(6-fluoro-1H-indol-3-yl)-3-phenylpropanoyl]decahydroquinoline-3-carboxylic acid] was over 250 nM.
As for `Cc1cccc2c1c(CCC(=O)N1CC(C)(C)OC3CCCCC31)cn2C` (stereo not shown) [Compound 70, 3-(1,4-dimethyl-1H-indol-3-yl)-1-(2,2-dimethyloctahydro-4H-1,4-benzoxazin-4-yl)propan-1-one], the figure is over 250 nM; as for `Cn1nc(CCC(=O)N2CCCC3CCCCC32)c2ccccc21` (stereo not shown) [Example 89, 3-(1-methyl-1H-indazol-3-yl)-1-(octahydroquinolin-1(2H)-yl)propan-1-one], 150 to 200 nM; as for `CC(CC(=O)N1CCCC2C(C(=O)O)CCCC21)c1c[nH]c2cccc(-c3ccco3)c12` (single isomer, unassigned) [Compound 223, 1-{3-[4-(furan-2-yl)-1H-indol-3-yl]butanoyl}decahydroquinoline-5-carboxylic acid], 100 to 150 nM.
As for `O=C(CS(=O)(=O)c1c[nH]c2ccccc12)N1CCCC2CCCCC21` (stereo not shown) [Compound 57, 2-(1H-indol-3-ylsulfonyl)-1-(octahydroquinolin-1(2H)-yl)ethanone], the figure is over 250 nM; as for `CC12CCCCC1N(C(=O)CCn1nnc3ccccc31)CCC2` (stereo not shown) [Example 90, 3-(1H-benzotriazol-1-yl)-1-(4a-methyloctahydroquinolin-1(2H)-yl)propan-1-one], 100 to 150 nM; as for `Cc1cccc2c1c(C(C)CC(=O)N1CCCC3C(C(=O)O)CCCC31)cn2C` (stereo not shown) [Compound 207, 1-[3-(1,4-dimethyl-1H-indol-3-yl)butanoyl]decahydroquinoline-5-carboxylic acid], over 250 nM.
Consider `Cn1cc(CCC(=O)N2CCO[C@@H]3CCCC[C@H]32)c2ccccc21` (relative stereo) [Compound 63, 3-(1-methyl-1H-indol-3-yl)-1-[(trans-4a,8a)-octahydro-4H-1,4-benzoxazin-4-yl]propan-1-one], for which the IC50 is over 250 nM.
Take `CC(CC(=O)N1CCC(C(=O)O)C2CCCCC21)c1nc2ccccc2s1` (stereo not shown) [Example 154, 1-[3-(1,3-benzothiazol-2-yl)butanoyl]decahydroquinoline-4-carboxylic acid]: the IC50 was over 250 nM.
Regarding `CC(CC(=O)N1C(C)CCC2C(C(=O)O)CCCC21)c1c[nH]c2cccc(-c3ccco3)c12` (stereo not shown) [Compound 231, 1-{3-[4-(furan-2-yl)-1H-indol-3-yl]butanoyl}-2-methyldecahydroquinoline-5-carboxylic acid], the IC50 fell in the range of 150 to 200 nM.
The value for `Cc1cccc2c1c(CCC(=O)N1CCCC3CCCCC31)cn2C` (stereo not shown) [Compound 27, 3-(1,4-dimethyl-1H-indol-3-yl)-1-(octahydroquinolin-1(2H)-yl)propan-1-one] was under 100 nM; that for `COC(=O)C1CCN(C(=O)CCc2c[nH]c3ccccc23)C2CCCCC12` (stereo not shown) [Compound 49, methyl 1-[3-(1H-indol-3-yl)propanoyl]decahydroquinoline-4-carboxylate] was over 250 nM; that for `O=C(CCc1c[nH]c2cccc(F)c12)N1CCOC2CCCCC21` (stereo not shown) [Compound 72, 3-(4-fluoro-1H-indol-3-yl)-1-(octahydro-4H-1,4-benzoxazin-4-yl)propan-1-one] was under 100 nM.
For `CC(CC(=O)N1CCCC2C(C(=O)O)CCCC21)c1c[nH]c2cccc(C3CC3)c12` (single isomer, unassigned) [Compound 196, 1-[3-(4-cyclopropyl-1H-indol-3-yl)butanoyl]decahydroquinoline-5-carboxylic acid], the IC50 was under 100 nM.
In the case of `CC(CC(=O)N1CCO[C@H]2CCCCC21)c1c[nH]c2cccc(F)c12` (single isomer, unassigned) [Example 140, 3-(4-fluoro-1H-indol-3-yl)-1-[cis-(4a,8a)-octahydro-4H-1,4-benzoxazin-4-yl]butan-1-one], the half-maximal inhibitory concentration (IC50) was under 100 nM.
Consider `CC(C)Oc1cccc2[nH]cc(C(C)CC(=O)N3CCCC4C(C(=O)O)CCCC43)c12` (stereo not shown) [Compound 201, 1-{3-[4-(propan-2-yloxy)-1H-indol-3-yl]butanoyl}decahydroquinoline-5-carboxylic acid], for which the IC50 is under 100 nM.
Regarding `CC(CC(=O)N1CCOC2CCCCC21)c1c[nH]c2cccc(F)c12` (stereo not shown) [Example 136, 3-(4-fluoro-1H-indol-3-yl)-1-(octahydro-4H-1,4-benzoxazin-4-yl)butan-1-one], the IC50 is over 250 nM.
Turning to `N#CC(CC(=O)N1CCCC2CCCCC21)c1c[nH]c2ccccc12` (stereo not shown) [Example 109, 2-(1H-indol-3-yl)-4-(octahydroquinolin-1(2H)-yl)-4-oxobutanenitrile], the IC50 was over 250 nM.
The value for `CC(CC(=O)N1CCCC2C(C(=O)O)CCCC21)c1c[nH]c2cccc(-c3ccc(F)o3)c12` (single isomer, unassigned) [Compound 250, 1-{3-[4-(5-fluorofuran-2-yl)-1H-indol-3-yl]butanoyl}decahydroquinoline-5-carboxylic acid] was under 100 nM; that for `CC(C)C(CC(=O)N1CCCC2CCCCC21)c1c[nH]c2ccccc12` (single isomer, unassigned) [Example 118, 3-(1H-indol-3-yl)-4-methyl-1-(octahydroquinolin-1(2H)-yl)pentan-1-one] was under 100 nM; that for `Cc1cccc2c1nnn2C(C)CC(=O)N1CCC(C(=O)O)C2CCCCC21` (stereo not shown) [Example 168, 1-[3-(4-methyl-1H-benzotriazol-1-yl)butanoyl]decahydroquinoline-4-carboxylic acid] was over 250 nM.
As for `COCn1cc(C(C)CC(=O)N2CCCC3C(C(=O)O)CCCC32)c2c(C3CC3)cccc21` (stereo not shown) [Compound 242, 1-{3-[4-cyclopropyl-1-(methoxymethyl)-1H-indol-3-yl]butanoyl}decahydroquinoline-5-carboxylic acid], the figure is over 250 nM; as for `CC(CC(=O)N1CCCC2C(C(=O)O)CCCC21)c1cn(C)c2cccc(C3CC3)c12` (single isomer, unassigned) [Compound 214, 1-[3-(4-cyclopropyl-1-methyl-1H-indol-3-yl)butanoyl]decahydroquinoline-5-carboxylic acid], under 100 nM; as for `CC(CC(=O)N1CCCC2CC(C(=O)O)CCC21)c1c[nH]c2cccc(C3CC3)c12` (stereo not shown) [Compound 191, 1-[3-(4-cyclopropyl-1H-Indol-3-yl)butanoyl]decahydroquinoline-6-carboxylic acid], 100 to 150 nM.
On to `CC(C)C(CC(=O)N1CCC(=O)C2CCCCC21)c1c[nH]c2ccccc12` (stereo not shown) [Example 104, 1-[3-(1H-indol-3-yl)-4-methylpentanoyl]octahydroquinolin-4(1H)-one], for which the half-inhibitory concentration (IC50) is over 250 nM.
As to `O=C(O)Cn1cc(CCC(=O)N2CCCC3CCCCC32)c2ccccc21` (stereo not shown) [Compound 46, {3-[3-(octahydroquinolin-1(2H)-yl)-3-oxopropyl]-1H-indol-1-yl}acetic acid], the IC50 is over 250 nM.
Turning to `O=C(CCc1nc2ccccc2s1)N1CCCC2CCCCC21` (stereo not shown) [Example 75, 3-(1,3-benzothiazol-2-yl)-1-(octahydroquinolin-1(2H)-yl)propan-1-one], the IC50 is under 100 nM.
For `CC(C)C(CC(=O)N1CCCC2CCCCC21)c1c[nH]c2cccc(F)c12` (stereo not shown) [Example 111, 3-(4-fluoro-1H-indol-3-yl)-4-methyl-1-(octahydroquinolin-1(2H)-yl)pentan-1-one], the IC50 was under 100 nM.
The value for `CC(CC(=O)N1CCCC2C(C(=O)O)CCCC21)c1c[nH]c2cccc(-c3ccco3)c12` (stereo not shown) [Compound 222, 1-{3-[4-(furan-2-yl)-1H-indol-3-yl]butanoyl}decahydroquinoline-5-carboxylic acid] was 100 to 150 nM; that for `CC(CC(=O)N1CCCC2C(C(=O)O)CCCC21)c1c[nH]c2cccc(-c3ccc(F)o3)c12` (single isomer, unassigned) [Compound 251, 1-{3-[4-(5-fluorofuran-2-yl)-1H-indol-3-yl]butanoyl}decahydroquinoline-5-carboxylic acid] was under 100 nM.
